# Measurements taken from publication PMC9886892, “Imidazolium salts as an alternative for anti-Leishmania drugs: Oxidative and immunomodulatory activities” (Frontiers in Immunology, 2023).
# Like-named read-outs stand apart in the source and are kept apart here.
# Key:
# in vitro = conditions: mouse; for CC50 at 48 h: CC50 (CI 95%): concentration of compound that causes 50% of macrophage mortality
# [1] = tested on: L. amazonensis promastigotes; conditions: for L. amazonensis mortality in the screening test: 100 µM screening concentration
# Description: (§1) Subsequently, 0.5 mg/mL of 3-(4,5-dimethylthiazol-2-yl)-2,5-diphenyltetrazolium bromide (MTT, Sigma-Aldrich®, St. Louis, MO, USA) was added and the incubations continued for an additional 4 h at 26 °C. The purple formazan product that was formed by the action of mitochondrial enzymes in living cells was solubilized by the addition of acidic isopropanol, and the absorbance at 570 nm was measured using a microplate reader spectrophotometer EZ Read 400 from Biochrom. […] The 50% inhibitory concentration (IC50) value for each compound was determined. The survival rate was calculated according to the formula: OD in treated group/OD of untreated group x 100. The 50% inhibitory concentration (IC50) value for each compound was determined by nonlinear regression analysis using GraphPad Prism 5.03 software.
# [2] = tested on: Macrophages RAW 264.7 cell line
# human erythrocytes [3] = conditions: for RBC50 (CI 95%): concentration of compound that causes 50% of red blood cell hemolysis: 60 min
# Description: Triton X-100 1% was used as positive control. The hemolytic assay was performed according to the procedure used by ([13]). […] The microplate was incubated at 37°C under agitation (90 rpm) for 60 min. Then, the suspension was centrifuged at 3,000 rpm for 5 min, and the absorbance of the supernatant was measured at 540 nm using a spectrophotometer EZ Read 400 from Biochrom. Triton X-100 1% and PBS were used as positive and negative control, respectively. […] The selectivity index (SI) (CC50 or RBC50/IC50 against L. amazonensis) were determined for each compound.
# [4] = tested on: L. infantum chagasi promastigotes; assay: microbe, parasite or virus in culture; conditions: Leishmania infantum; for IC50: 48 h
# Description: as §1
# [5] = tested on: L. amazonensis amastigotes in RAW 264.7 macrophages; assay: Intramacrophage anti-amastigote activity; assay type: cell-based, Leishmania (L.) amazonensis
# Description: The anti-amastigote assay was performed as previously described ([13]). Macrophages RAW 264.7 cell line (ATCC) were cultured in DMEM plus 10% fetal bovine serum (FBS), penicillin (100 U/mL) and streptomycin (100 µg/mL) until reaching 90% confluence, when were distributed into 96-well microplates at a concentration of 2 x 10^5 cells/well in the presence of DMEM. […] The leishmanicidal activity of macrophages was assessed by determining the number of viable parasites (4 replicates) using a hemocytometer.
# [6] = tested on: L. amazonensis promastigotes; assay: Mitochondrial membrane potential (rhodamine 123, flow cytometry); assay type: cell-based, Leishmania (L.) amazonensis; conditions: IS 2-fold IC50, 6 h; amphotericin B 0.4 µM; hydrogen peroxide 2 mM
# Text: A total of 30,000 events were acquired in the region that corresponded to the parasites. Histograms were build using the CellQuest Pro software (Joseph Trotter, Scripps Research Institute, La Jolla, CA, USA).
# [7] = tested on: L. amazonensis promastigotes; assay: microbe, parasite or virus in culture; conditions: Leishmania amazonensis, 48 h
# Description: as §1
# [8] = tested on: L. amazonensis promastigotes; set-up: method as in PMID 30077823; conditions: read-out: IC50 for L. amazonensis promastigotes (previous study); cited from earlier work
# [9] = tested on: L. infantum chagasi promastigotes; conditions: read-out: IC50 (CI 95%): concentration of compound that causes 50% of L. infantum chagasi promastigotes mortality, 48 h, MTT
# Description: as §1
# [10] = tested on: L. amazonensis promastigotes; assay: Cell membrane integrity (propidium iodide, flow cytometry); assay type: cell-based, Leishmania (L.) amazonensis; conditions: 1.8 µM (IC50), 48 h
# Description: After 48 h at 26°C, the parasites were harvested and washed twice with PBS, resuspended and incubated with 100 μL of propidium iodide (PI – Sigma–Aldrich) 50 μg/mL at 26°C for 15 min. Following, each sample was completed with 400 μL of PBS and a total of 20,000 events were acquired and analyzed on BD FACScalibur flow cytometer and CellQuest Pro software. PI fluorescence intensity was quantified as the percentage of the fluorescence compared with untreated promastigotes ([30]). Results were obtained from two independent experiments performed in triplicate.
# [11] = tested on: Macrophages RAW 264.7 cell line; conditions: read-out: CC50 towards macrophages (previous study); cited from earlier work
# human erythrocytes [12] = conditions: cited from earlier work
# [13] = tested on: L. amazonensis promastigotes; assay: Detection of reactive oxygen species production (DCF-DA, flow cytometry); assay type: cell-based, Leishmania (L.) amazonensis; conditions: IS 2-fold IC50, 6 h; amphotericin B 0.4 µM; hydrogen peroxide 2 mM
# Description: ROS generation was quantified using the dye 2′,7′-dichlorofluorescein diacetate (DCF-DA, Sigma-Aldrich) and flow cytometer analysis ([13], [30], [31]). […] Then, cells were washed with PBS and incubated with 0.5 mL of 10 µM DCF-DA for 30 min at room temperature. After being washed with PBS, cells were resuspended in 0.5 mL PBS and analysed using a BD FACSCalibur (Becton–Dickinson, Rutherford, NJ, USA) flow cytometer and CellQuest Pro software (Joseph Trotter, Scripps Research Institute, La Jolla, CA, USA) using the blue argon-ion 488 nm laser with the FL1 filter channel. A total of 30,000 events were acquired in the region that corresponded to living parasite.
# [14] = read-out: IC50 (CI 95%): concentration of compound that causes 50% of L. infantum chagasi promastigotes mortality, promastigotes, 48 h, MTT
# [15] = Leishmania amazonensis, RAW264.7, 48 h, read-out: IC50 (CI 95%): concentration of compound that causes 50% of L. amazonensis amastigotes mortality, infected RAW 264.7 macrophages, 48 h
# [16] = read-out: mortality of L. amazonensis promastigotes, 5 µM, 48 h
Structure (SMILES),IC50 [1] [µM],L. amazonensis mortality in the screening test ([1]; 48 h),"SI: selectivity index, ratio of CC50 for macrophage/IC50 for L. amazonensis amastigotes [2]","SI: selectivity index, ratio of CC50 for macrophage/IC50 for L. amazonensis promastigotes [2]","SI: selectivity index, ratio of CC50 for RBC hemolysis/IC50 for L. amazonensis amastigotes (human erythrocytes [3])","SI: selectivity index, ratio of CC50 for RBC hemolysis/IC50 for L. amazonensis promastigotes (human erythrocytes [3])","IC50 [5, 15] [µM]",mitochondrial membrane potential (ΔΨm) alteration [6],"mortality at 5 µM [7, 16] [%]",IC50 [9] [µM],further results
"CCCCCCCCCCn1cc[n+](CCCCCCCCCC)c1C.[Cl-] [(C10)2MImCl, 1,3-Didecyl-2-methylimidazolium chloride]",1.9,100%,82,8.6,105,11,0.2,significant ΔΨm depolarization,97,,"viability at 48 h (in vitro): 94%; CC50 at 48 h (in vitro; RAW cells, 48 h, MTT): 16.4 µM; RBC50 (CI 95%): concentration of compound that causes 50% of red blood cell hemolysis (human erythrocytes [3]; human red blood cells, 37°C): 20.9 (20-21.9) µM; IC50 [4, 14]: 16.5 µM"
"CCCCn1cc[n+](C)c1.CS(=O)(=O)[O-] [C4MImMeS, 1-Butyl-3-methylimidazolium methanesulfonate]",,without activity,,,,,,,,,
"CCCCCCCCCCn1cc[n+](C)c1 [C10MImCl, 1-decyl-3-methylimidazolium chloride]",,,,,,,,,,,"IC50 [8]: 2.31 µM; IC50 [4, 14]: 115 µM"
"CCCCCCCCCCn1cc[n+](C)c1.CS(=O)(=O)[O-] [C10MImMeS, 1-decyl-3-methylimidazolium methanesulfonate]",11.6,100%,256,6.6,,> 8.6,0.3,ΔΨm hyperpolarization,60,> 100,"viability at 48 h (in vitro): 89%; CC50 at 48 h (in vitro; RAW cells, 48 h, MTT): 76.9 µM; concentration up to which more than 90% of the macrophages kept alive ([2]; mouse, 48 h): up to 50 µM; concentration up to which no significant hemolysis (human erythrocytes [3]; human erythrocytes): up to 40 µM; RBC50 (CI 95%): concentration of compound that causes 50% of red blood cell hemolysis (human erythrocytes [3]; human red blood cells, 37°C): > 100 µM"
"CCCCCCCCCCCCCCCCn1ccnc1 [C16Im, 1-hexadecylimidazole]",,100%,275,3.8,> 500,> 6.8,0.2,,,,"CC50 at 48 h (in vitro): 54.9 µM; concentration causing significant parasite mortality ([1]; L. amazonensis promastigotes, 48 h): ≥ 10 µM; RBC50 (CI 95%): concentration of compound that causes 50% of red blood cell hemolysis (human erythrocytes [3]; human): > 100 µM; IC50 [4, 14]: 8.3 µM"
"CCCCCCCCCCCCCCCCn1cc[n+](C)c1C.[Cl-] [C16M2ImCl, 1-hexadecyl-2,3-dimethylimidazolium chloride]",4.1,100%,99,4.8,108,5.3,0.2,significant ΔΨm depolarization,85,,"CC50 at 48 h (in vitro; RAW cells, 48 h, MTT): 19.8 µM; RBC50 (CI 95%): concentration of compound that causes 50% of red blood cell hemolysis (human erythrocytes [3]; human): 21.6 (20.8-22.5) µM; IC50 [4, 14]: 15.4 µM"
"CCCCCCCCCCCCCCCCn1c(C)c(C)[n+](C)c1C.[Cl-] [C16M4ImCl, 1-hexadecyl-2,3,4,5-tetramethylimidazolium chloride]",,100%,89,10,78,8.7,,significant ΔΨm depolarization,,,"CC50 (in vitro): 17.8 µM; viability (in vitro): 90%; RBC50 (CI 95%): concentration of compound that causes 50% of red blood cell hemolysis (human erythrocytes [3]; human red blood cells, 37°C): 15.6 (14.5-16.8) µM; IC50 ([4]; read-out: IC50 (CI 95%): concentration of compound that causes 50% of L. infantum chagasi promastigotes mortality): 14.9 µM; IC50 ([5]; Leishmania amazonensis, RAW264.7, 48 h, read-out: IC50 (CI 95%): concentration of compound that causes 50% of L. amazonensis amastigotes mortality): 0.2 µM; L. amazonensis integrity (panoptic stain) [10]: total lysis of the parasites; IC50 ([7]; read-out: IC50 (CI 95%): concentration of compound that causes 50% of L. amazonensis promastigotes mortality): 1.8 µM; mortality at 5 µM ([7]; read-out: mortality of L. amazonensis promastigotes): 95%"
"CCCCCCCCCCCCCCCCn1cc[n+](C)c1.[Br-] [C16MImBr, 1-hexadecyl-3-methylimidazolium bromide]",6,100%,80,2.7,114,3.8,,significant ΔΨm depolarization,,29.7,"CC50 at 48 h (in vitro; RAW cells, 48 h, MTT): 16 µM; mortality of L. amazonensis promastigotes ([1]; 5 µM, 48 h): 42%; RBC50 (CI 95%): concentration of compound that causes 50% of red blood cell hemolysis (human erythrocytes [3]; human red blood cells, 37°C): 22.8 (21.7-24) µM; IC50 ([5]; read-out: IC50 (CI 95%): concentration of compound that causes 50% of L. amazonensis amastigotes mortality, infected RAW 264.7 macrophages, 48 h): 0.2 µM"
"CCCCCCCCCCCCCCCCn1cc[n+](C)c1 [C16MImCl, 1-hexadecyl-3-methylimidazolium chloride]",,,,,,,,,,9.9,IC50 [8]: 1.23 µM
"CCCCCCCCCCCCCCCCn1cc[n+](C)c1.CS(=O)(=O)[O-] [C16MImMeS, 1-hexadecyl-3-methylimidazolium methanesulfonate]",,,,,,,,,,10.8,IC50 [8]: 0.75 µM; CC50 [11]: 11.5 µM; RBC50 erythrocytes (previous study) (human erythrocytes [12]): 36.9 µM
"CCCCCCCCCCCCCCCCn1cc[n+](C)c1 [C16MImNTf2, 1-hexadecyl-3-methylimidazolium bis(trifluoromethylsulfonyl)imide]",,,,,,,,,,,IC50 [8]: 1.64 µM
"CCCCCCCCCCCCCCCCn1cc[n+](C)c1 [C16MImPF6, 1-hexadecyl-3-methylimidazolium hexafluorophosphate]",6.9,100%,56,2.4,82.7,3.6,0.3,significant ΔΨm depolarization,37,26.3,CC50 at 48 h (in vitro): 16.8 µM; RBC50 (CI 95%): concentration of compound that causes 50% of red blood cell hemolysis (human erythrocytes [3]; human): 24.8 (22.9-26.8) µM
"CCCCCCCCCCCCCCCC[n+]1ccccc1.O.[Cl-] [C16PyrCl, 1-hexadecylpyridinium chloride monohydrate, reference compound]",,100%,,,,,,,,,
"OO [H2O2, hydrogen peroxide, reference compound]",,,,,,,,mitochondrial depolarization,,,ROS production [13]: significant elevation in ROS production
"C[C@@H]1[C@H](O)[C@@H](C)/C=C/C=C/C=C/C=C/C=C/C=C/C=C/[C@H](O[C@@H]2O[C@H](C)[C@@H](O)[C@H](N)[C@@H]2O)C[C@@H]2O[C@](O)(C[C@@H](O)C[C@@H](O)[C@H](O)CC[C@@H](O)C[C@@H](O)CC(=O)O[C@H]1C)C[C@H](O)[C@H]2C(=O)O [amphotericin B, reference compound]",0.4,,,,,,,mitochondrial depolarization,100,,mortality at 5 µM ([4]; read-out: mortality of L. infantum chagasi promastigotes): 100%; ROS production [13]: significant elevation in ROS production
